Our source for the melting point values is a melting point compilation (Tetko et al.; mined from patent text by program, amines drawn as free bases though some values may be those of a salt).

The melting point is the temperature, or range, at which the solid turns liquid.

`CCc1cc(C(C)=O)ccc1N=C1SCC2(CCCC2)N1C1CCCC1`: the melting point lay in the range of 114 to 115 °C. The result for `COc1ccc([N+](=O)[O-])cc1C(C#N)O[Si](C)(C)C` (stereo not drawn) reads 108 to 111 °C; that for `O=C(O)c1sc(-c2ccc(C(F)(F)F)cc2)nc1C(F)(F)F`, 177 to 179 °C. With `Cc1nc(-c2ccc(S(N)(=O)=O)c(F)c2)c(-c2ccc(-c3cscn3)cc2)o1` the figure was 192 to 194 °C; with `CCOC(=O)C1CCc2c(n(C)c3ccc(Cl)cc23)C1` (stereo not drawn), 126 to 127 °C; with `CCOC(=O)C(Cc1ccc(C(F)(F)F)cc1)C(=O)c1ccc(F)cc1F` (stereo not drawn), 34 to 35 °C. The result for `N#Cc1ccc(-c2ccc3ccccc3c2)cc1Cn1cncn1` reads 119 to 121 °C; that for `CC(=O)N1CCCC(=O)c2c(Cl)cccc2CCC1=O`, 115 to 116 °C. As for `CCOc1cc(OCc2cn(-c3ccc(C(F)(F)F)cn3)nc2C)ccc1CCC(=O)O`, the melting point lay in the range of 151 to 152 °C. The result for `NC(=O)c1cnc2c(F)c(F)ccc2c1` reads 250 °C; that for `CCOC(=O)c1cn(-c2cc([N+](=O)[O-])c(F)cc2F)c2cc(F)c(F)cc2c1=O`, 165 to 173 °C. The result for `C=Cc1cnc([N+](=O)[O-])n1CC` reads 45 to 47 °C; that for `CC(=O)N1CCN2c3c(cccc3C3CCCC32)C1` (stereo not drawn), 111 to 113 °C. The result for `CC(C)c1ccc(N2Cc3ccc(Cl)cc3C2=O)cc1` reads 206 to 209 °C; that for `O=C1c2cc3c(cc2CCC1NC(=O)C(F)(F)F)CCO3` (stereo not drawn), 208 °C. Turning to `CCn1ncc2c3onc(-c4cccc(F)c4)c3cnc21`, the melting point lay within 136 to 137 °C.

As to `CCCCC1C(C(=O)OCC)C(O)(C(F)(F)F)NC(O)(C(F)(F)F)C1C(=O)OCC` (stereo not drawn), the melting point fell in the range of 77 to 80 °C. `CCOC(=O)CNC(=O)[C@@H](C)NC(=O)CNC(=O)CSC(=O)c1ccccc1`: the melting point came to 137 °C. With `COC(=O)C(=O)c1ccc(S(=O)(=O)CCOc2ccc3ccccc3c2)cc1` the figure was 110 to 111 °C. With `O=C(O)C1=COc2ccccc2O1` the figure was 183 to 184 °C; with `CCN(CC)C(=O)c1ccc(C)c(-c2nc(S(C)(=O)=O)nc3c2CNC(=O)N3c2c(F)cccc2F)c1`, 132 to 135 °C. The result for `CC(C)c1c(Cl)nc2ncnn2c1Cl` reads 119 °C; that for `NC(=O)Cc1cccc(OCCN2CCC(Cc3ccccc3)CC2)c1`, 100 to 101 °C; that for `Cc1ccc(-c2c(C#N)nn(-c3c(Cl)cc(C(F)(F)F)cc3Cl)c2N)cc1`, 243 to 244 °C. For the molecule `CSc1ncccc1NC(=O)CCCCCCCCSc1nc2ccccc2s1`, the melting point fell in the range of 107 to 108 °C.

Regarding `O=C1C(CCO)Oc2cc([N+](=O)[O-])ccc2N1Cc1ccccc1Cl` (stereo not drawn), the melting point fell in the range of 106 to 108 °C. With `CCCCNC(=O)C1(c2ccccc2)CCN(C)CC1` the figure was 73 to 76.5 °C; with `Nc1ccn(C2C=CC(CO)O2)c(=O)n1` (stereo not drawn), 167 to 169 °C; with `CCc1nc(C)c(CC(=O)O)c(=O)n1Cc1ccc(-c2ccccc2-c2nnn[nH]2)cc1`, 325 to 329 °C. With `O=C(OCc1nc(/C=C/c2cn(-c3ccccc3)nc2O)cs1)c1ccccc1` the figure was 215 to 216 °C. The result for `COC(=O)c1ccc(-c2nnc(-c3cccc(NS(=O)(=O)c4ccc(C)cc4)c3)o2)cc1` reads 227 to 228 °C; that for `CCOC(=O)C1=C(C)NC(C)=C(C(=O)OCC)C1c1cccc(Cl)c1Cl`, 125 to 126 °C. For the molecule `COc1c(C#N)c(OC)c(OC)c(OC)c1OC`, the melting point was 64 °C. Molecule `Clc1ccc(CCC(Cn2ccnc2)OCC=Cc2ccccc2)cc1` (stereo not drawn) returned a melting point of 115 to 116 °C. In turn, `Cc1ccc(S(=O)(=O)OCCc2c(C)nc3cc(C)ccn3c2=O)cc1` yielded a melting point of 128 °C. The result for `CC(C)Sc1cn(C)cc(-c2ccc(Cl)c(C(F)(F)F)c2)c1=O` reads 127 to 129 °C; that for `CCOCc1nc2cnc3cc(O)ccc3c2n1CC1COC(C)(C)O1` (stereo not drawn), 239 to 240 °C; that for `Clc1ccccc1C1=NOC(c2ccccc2Cl)N1` (stereo not drawn), 75 to 78 °C. The result for `O=C1Nc2ccc(-c3ccc(Cl)cc3)cc2C1=O` reads 246 to 252 °C; that for `Cc1nc2cc(-c3cccc(C=C4SC(=O)NC4=O)c3)cc(C34CC5CC(CC(C5)C3)C4)c2o1`, 355 to 358 °C. The result for `O=C(Cc1ccccc1Nc1c(Cl)cccc1Cl)NO` reads 164 to 165 °C; that for `CS(=O)(=O)Nc1cc(-c2ncc(C(F)(F)F)cc2Cl)ccc1Cl`, 133 to 134 °C; that for `CCCCCCc1ccc(C=Nc2ccc(C#N)cc2)cc1`, 32.2 to 33 °C. As to `O=c1cc2c(n[nH]1)-c1ccc(O)cc1CC2`, the melting point worked out at 300 °C.

The molecule `CC(=O)ON=C(N)c1ccc(C(=O)N2CCN(C(=O)[C@@H]3CCCN3S(=O)(=O)c3ccc(Cl)c(COc4cccn5c(C)c(C)nc45)c3Cl)CC2)cc1` displayed a melting point of 142 to 145 °C. Molecule `Nc1c(CC(=O)O)cccc1C(=O)c1ccc(F)cc1` returned a melting point of 136 to 137 °C. `CCCC(OC)c1ccc(Cl)c2nc3n(c12)CCCN3c1ccc(Cl)cc1Cl` (stereo not drawn): the melting point lay within 139 to 140 °C. With `Nc1nc(Nc2ccc(S(N)(=O)=O)cc2)sc1C(=O)c1c(Cl)cc(C(F)(F)F)cc1Cl` the figure was 294 to 296 °C.

`Cc1nc2cccc(N)c2c(=O)n1C1CCC(=O)NC1=O` (stereo not drawn) came in with a melting point of 293 to 295 °C. With `Cc1cc(C)cc(OC(=O)C(c2ccccc2)N2CCN(C3CCN(C(=O)c4cc(C(F)(F)F)cc(C(F)(F)F)c4)C(Cc4ccccc4)C3)CC2)c1` (stereo not drawn) the figure was 88.1 °C; with `COC(=O)[C@H](CCC(=O)NCCc1ccc(O)c(OCc2ccccc2)c1)NC(=O)OCc1ccccc1`, 110 to 115 °C; with `Oc1ccc(-c2ccc(C(F)(F)F)cc2)cn1`, 178 to 182 °C.

Turning to `COC(=O)NCCOc1ccc(Oc2ccc(F)cc2)cc1`, the melting point lay in the range of 64 to 66 °C. As for `CN(C)CCCNS(=O)(=O)c1ccc(C(C)(C)c2cc(C(C)(C)CC(C)(C)C)cc(-n3nc4ccccc4n3)c2O)cc1`, the melting point lay within 96 to 101 °C. The result for `COc1c(Cl)ccc(-c2cc(N)c(OC(F)F)c(Cl)n2)c1F` reads 152 to 154 °C; that for `CON=C(c1cc(C)no1)c1ccccc1COc1cc(C)ccc1C`, 107 to 108 °C.

`COc1ccccc1S(=O)(=O)OCC(=O)c1ccccc1` registered a melting point of 88 °C. With `CCCCCSc1cccc(-c2nc(=O)c3ccccc3s2)n1` the figure was 105 °C. The result for `O=S(=O)(Cl)C=Cc1ccc(Cl)c(Cl)c1` reads 91 to 96 °C; that for `COC(=O)c1cccc2c(CCl)c(C)sc12`, 125 to 126 °C; that for `CC(=O)Oc1ccc(-c2cnc(N(S(=O)(=O)Cc3ccccc3)S(=O)(=O)Cc3ccccc3)c(Cc3ccccc3)n2)cc1`, 84 to 86.5 °C. With `CCOC(=O)C(=NO)C(=O)c1ccc(Br)cc1` the figure was 149 °C. For the molecule `N#Cc1ccc(OCCCCCOc2ccc(-c3cc4cc(C#N)ccc4o3)cc2)cc1`, the melting point was 163 to 166 °C. With `CCOc1cc(OCCCCc2cn(-c3ccc(C(F)(F)F)cn3)nc2OCC)ccc1CCC(=O)O` the figure was 101 to 102 °C; with `CC1=C(C(O)c2ccc3c(c2)CCN(C(N)=O)C3)C(C)(C)CC1` (stereo not drawn), 68.6 to 69.6 °C; with `COc1ccc2nn(C)cc2c1C1CC1CNC(C)=O` (stereo not drawn), 104 to 105 °C. With `CC(C)c1c(C=O)c(-c2ccccc2)c2c3ccccc3cnn12` the figure was 163 to 164 °C; with `CC(C)(C)c1ccc(C(=O)c2ccccc2O)c(C(C)(C)C)c1O`, 126 to 128 °C; with `COc1cccc(CCc2cc(C(C)(C)C)c(O)c(C(C)(C)C)c2)c1NC(=O)NC1CCN(Cc2ccccc2)CC1`, 184 to 185 °C.

For the molecule `CC(=O)c1cc(N2CCOCC2)ccc1NC(=O)c1ccccc1OCc1ccccc1`, the melting point is 144 to 146 °C. The molecule `COc1ccc(CN2C(=O)C(CCO)Oc3ccccc32)cc1` (stereo not drawn) came in with a melting point of 80 to 82 °C. Consider `COC(=O)c1ccc(-c2cc(-c3ccc(Cl)cc3)no2)cc1`, for which the melting point lay within 225 to 226 °C. With `CC1(O)C(CO)OC(n2cnc3c(N)ncnc32)C1(C)O` (stereo not drawn) the figure was 180 °C; with `Cc1cc(OC(F)F)nc(NC(=O)NS(=O)(=O)c2ccccc2OC(F)F)n1`, 163 to 164 °C. The molecule `OCc1cc(CO)c(O)c(-c2ccccc2)c1` yielded a melting point of 105 to 110 °C. The result for `CC(C(=O)O)c1ccc(-n2cc(Cl)cn2)cc1` (stereo not drawn) reads 152 to 153 °C; that for `CC(=O)C(C#N)c1ccc2c(c1)Cc1cccnc1O2` (stereo not drawn), 245 to 248 °C.

Molecule `Cc1c2c(c(-c3ccc(C(F)(F)F)cc3)c3c4c(ccc13)OCO4)CNC2=O` yielded a melting point of 303 to 305 °C. The molecule `COc1cc(OC)c(-c2cccs2)cc1/C=C/C(=O)c1ccc(C(=O)O)cc1` returned a melting point of 213 to 216 °C.

`CC(C)(CC(O)(Cn1cc(Br)c(=O)c2sccc21)C(F)(F)F)c1cccc2c1OCO2` (stereo not drawn) came in with a melting point of 197 to 198 °C. Consider `COC(=O)CC1(c2c(C)c(OC)c(C)c(C)c2OC)C=CC2=NCOC2=C1` (stereo not drawn), for which the melting point was in the range of 68 to 69 °C.

In turn, `CCOC(=O)/C(=N\OC1CCSC1)c1csc(N)n1` (stereo not drawn) returned a melting point of 151 to 152 °C. In turn, `CCOP(=O)(O)Cc1cccc(C(F)(F)F)c1` registered a melting point of 48 to 51 °C. The result for `Cc1cc(C)c(C2=C(OC(=O)C(C)(C)C)CC(CC3CCOC3)CC2=O)c(C)c1` (stereo not drawn) reads 108 to 110 °C; that for `Cc1c(C(=O)O)oc2cc(SC(=O)N(C)C)ccc12`, 188 to 190 °C; that for `CC(=O)NC12Oc3cc(C(C)C)ccc3C1(O)C(=O)c1c(N)cccc12` (stereo not drawn), 278 to 280 °C. Consider `C#C/C(=C\c1cccnc1)c1c[nH]c2ccc(OC)cc12`, for which the melting point was found to be 136 °C. Take `NC(=O)c1nc(-c2cccc(O)c2)nc2c1[nH]c(=O)n2-c1cccc2[nH]ccc12`: the melting point is > 260 °C.
